Common to all, as to format: biochemical
The target in one experiment is T1, PDGFRB (Homo sapiens, UniProt P09619).
T1 construct: Kinases are expressed as either kinase domains or full length constructs; made in house
Briefly: Kinase inhibition assay (33P transfer), PDGFRB. The settings on record: read-out: PDGFRB-1.

The next experiment has as its target T2, AKT (Homo sapiens, UniProt Q9Y243).
T2 construct: Kinases are expressed as either kinase domains or full length constructs; made in house
Briefly: Kinase inhibition assay (33P transfer), AKT. The settings on record: Table 2, kinase inhibition class; read-out: AKT3-1. A digest of the protocol:
(§1)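 33P-ATP transfer to coated synthetic polymer substrates; acid wash (0.5% H3PO4), scintillant, liquid scintillation count. Enzymes: His- or GST-fusion kinases from E. coli or High Five insect cells.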

A further experiment deals with T3, Zap-70 (Homo sapiens, UniProt P43403).
T3 construct: Kinases are expressed as either kinase domains or full length constructs; made in house
T3 sequence (P43403 1-619): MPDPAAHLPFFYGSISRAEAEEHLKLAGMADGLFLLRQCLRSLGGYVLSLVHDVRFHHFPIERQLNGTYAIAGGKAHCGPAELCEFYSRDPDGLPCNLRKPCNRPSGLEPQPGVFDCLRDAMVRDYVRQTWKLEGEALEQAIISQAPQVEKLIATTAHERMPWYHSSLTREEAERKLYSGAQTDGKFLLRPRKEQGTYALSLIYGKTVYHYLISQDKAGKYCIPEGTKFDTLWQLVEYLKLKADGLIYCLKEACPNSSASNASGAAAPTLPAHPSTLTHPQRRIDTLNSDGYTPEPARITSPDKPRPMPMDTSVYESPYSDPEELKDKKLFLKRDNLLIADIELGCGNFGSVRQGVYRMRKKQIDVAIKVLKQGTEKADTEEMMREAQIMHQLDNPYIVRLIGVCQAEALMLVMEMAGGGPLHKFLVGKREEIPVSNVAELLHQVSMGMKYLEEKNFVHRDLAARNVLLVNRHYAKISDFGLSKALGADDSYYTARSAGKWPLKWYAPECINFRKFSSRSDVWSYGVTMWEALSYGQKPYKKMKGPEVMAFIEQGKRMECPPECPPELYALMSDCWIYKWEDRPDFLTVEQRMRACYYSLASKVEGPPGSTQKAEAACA
Nature of the experiment: Kinase inhibition assay (33P transfer), Zap-70. The following applies: Table 3; read-out: Zap-1. A digest of the protocol: as §1

Another experiment deals with T4, Flt-1 (Homo sapiens, UniProt P17948).
T4 construct: Kinases are expressed as either kinase domains or full length constructs; made in house
Nature of the experiment: Kinase inhibition assay (33P transfer), Flt-1. An outline of the steps: (§2)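 Kinase domains or full-length enzymes, GST- or polyHis-tagged, were expressed in E. coli or baculovirus High Five cells and affinity-purified. Transfer of 33PO4 from ATP onto plate-bound poly(Glu,Tyr) 4:1 or poly(Arg,Ser) 3:1 was counted by liquid scintillation after a 0.5% phosphoric acid wash. IC50 = concentration halving incorporation.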

The next experiment deals with T5, Lck (Homo sapiens, UniProt P06239).
T5 construct: Kinases are expressed as either kinase domains or full length constructs; made in house
Nature of the experiment: Kinase inhibition assay (33P transfer), Lck. The following applies: Table 3; read-out: Lck-1. A digest of the protocol: as §1

For another experiment, the target named is T6, IGFR-1 (Homo sapiens, UniProt P08069).
T6 construct: Kinases are expressed as either kinase domains or full length constructs; made in house
Nature of the experiment: Kinase inhibition assay (33P transfer), IGFR-1. The following applies: Table 2, kinase inhibition class.

The next experiment concerns the target T7, c-Met (Homo sapiens, UniProt P08581).
T7 construct: Kinases are expressed as either kinase domains or full length constructs; made in house
Briefly: Kinase inhibition assay (33P transfer), c-Met. The settings on record: Table 2, kinase inhibition class; read-out: Met-1. An outline of the steps: as §2

In the next experiment the target is T8, FGFR1 (Homo sapiens, UniProt P11362).
T8 construct: Kinases are expressed as either kinase domains or full length constructs; made in house
Nature of the experiment: Kinase inhibition assay (33P transfer), FGFR1. The following applies: read-out: FGFR1-1.

Another experiment concerns the target T9, Kdr (Homo sapiens, UniProt P35968).
T9 construct: Kinases are expressed as either kinase domains or full length constructs; made in house
Nature of the experiment: Kinase inhibition assay (33P transfer), Kdr. The following applies: Table 3; read-out: KDR-1. An outline of the steps: as §1

The next experiment deals with T10, Lyn (Homo sapiens, UniProt P07948).
T10 construct: Kinases are expressed as either kinase domains or full length constructs; made in house
Briefly: Kinase inhibition assay (33P transfer), Lyn. The settings on record: Table 6, Lyn-1 kinase inhibition class. A digest of the protocol: as §2

A further experiment addresses T11, Hck-1 (Homo sapiens, UniProt P08631).
T11 construct: Kinases are expressed as either kinase domains or full length constructs; made in house
Briefly: Kinase inhibition assay (33P transfer), Hck. The following applies: Table 6, Hck-1 kinase inhibition class.

For a further experiment, the target named is T12, ErbB2 (Homo sapiens, UniProt P04626).
T12 construct: Kinases are expressed as either kinase domains or full length constructs; made in house
Nature of the experiment: Kinase inhibition assay (33P transfer), ErbB2. The following applies: read-out: ErbB2-2. An outline of the steps: as §2

A value given as a limit tells only on which side of the number the result lay.

T1 sequence (P09619 33-1106, species assumed): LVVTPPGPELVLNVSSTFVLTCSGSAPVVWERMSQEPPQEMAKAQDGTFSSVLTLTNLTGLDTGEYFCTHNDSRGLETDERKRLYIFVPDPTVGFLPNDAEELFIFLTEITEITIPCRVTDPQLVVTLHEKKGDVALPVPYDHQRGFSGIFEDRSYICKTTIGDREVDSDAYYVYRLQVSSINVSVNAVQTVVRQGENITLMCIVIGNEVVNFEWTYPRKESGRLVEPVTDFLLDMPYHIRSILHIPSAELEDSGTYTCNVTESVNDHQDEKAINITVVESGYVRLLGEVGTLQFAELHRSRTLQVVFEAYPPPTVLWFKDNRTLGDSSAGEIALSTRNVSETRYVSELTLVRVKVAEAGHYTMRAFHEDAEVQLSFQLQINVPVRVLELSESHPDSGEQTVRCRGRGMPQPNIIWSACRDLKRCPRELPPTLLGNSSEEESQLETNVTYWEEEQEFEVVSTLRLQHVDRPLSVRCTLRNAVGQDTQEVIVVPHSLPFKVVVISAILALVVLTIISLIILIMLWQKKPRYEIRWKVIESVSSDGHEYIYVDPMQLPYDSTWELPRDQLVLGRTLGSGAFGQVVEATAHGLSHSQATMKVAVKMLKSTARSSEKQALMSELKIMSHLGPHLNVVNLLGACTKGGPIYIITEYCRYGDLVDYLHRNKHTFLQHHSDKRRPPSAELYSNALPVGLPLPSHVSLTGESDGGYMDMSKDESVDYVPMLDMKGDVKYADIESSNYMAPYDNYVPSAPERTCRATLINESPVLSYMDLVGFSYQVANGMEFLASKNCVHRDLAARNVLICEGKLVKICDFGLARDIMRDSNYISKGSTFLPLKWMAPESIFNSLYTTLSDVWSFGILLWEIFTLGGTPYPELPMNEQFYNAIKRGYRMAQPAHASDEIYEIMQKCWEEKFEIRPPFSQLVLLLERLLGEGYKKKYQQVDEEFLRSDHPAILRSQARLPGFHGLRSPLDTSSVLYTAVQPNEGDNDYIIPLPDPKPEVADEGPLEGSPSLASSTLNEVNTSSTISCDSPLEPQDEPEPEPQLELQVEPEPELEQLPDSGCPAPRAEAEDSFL
T9 sequence (P35968 20-1356, species assumed): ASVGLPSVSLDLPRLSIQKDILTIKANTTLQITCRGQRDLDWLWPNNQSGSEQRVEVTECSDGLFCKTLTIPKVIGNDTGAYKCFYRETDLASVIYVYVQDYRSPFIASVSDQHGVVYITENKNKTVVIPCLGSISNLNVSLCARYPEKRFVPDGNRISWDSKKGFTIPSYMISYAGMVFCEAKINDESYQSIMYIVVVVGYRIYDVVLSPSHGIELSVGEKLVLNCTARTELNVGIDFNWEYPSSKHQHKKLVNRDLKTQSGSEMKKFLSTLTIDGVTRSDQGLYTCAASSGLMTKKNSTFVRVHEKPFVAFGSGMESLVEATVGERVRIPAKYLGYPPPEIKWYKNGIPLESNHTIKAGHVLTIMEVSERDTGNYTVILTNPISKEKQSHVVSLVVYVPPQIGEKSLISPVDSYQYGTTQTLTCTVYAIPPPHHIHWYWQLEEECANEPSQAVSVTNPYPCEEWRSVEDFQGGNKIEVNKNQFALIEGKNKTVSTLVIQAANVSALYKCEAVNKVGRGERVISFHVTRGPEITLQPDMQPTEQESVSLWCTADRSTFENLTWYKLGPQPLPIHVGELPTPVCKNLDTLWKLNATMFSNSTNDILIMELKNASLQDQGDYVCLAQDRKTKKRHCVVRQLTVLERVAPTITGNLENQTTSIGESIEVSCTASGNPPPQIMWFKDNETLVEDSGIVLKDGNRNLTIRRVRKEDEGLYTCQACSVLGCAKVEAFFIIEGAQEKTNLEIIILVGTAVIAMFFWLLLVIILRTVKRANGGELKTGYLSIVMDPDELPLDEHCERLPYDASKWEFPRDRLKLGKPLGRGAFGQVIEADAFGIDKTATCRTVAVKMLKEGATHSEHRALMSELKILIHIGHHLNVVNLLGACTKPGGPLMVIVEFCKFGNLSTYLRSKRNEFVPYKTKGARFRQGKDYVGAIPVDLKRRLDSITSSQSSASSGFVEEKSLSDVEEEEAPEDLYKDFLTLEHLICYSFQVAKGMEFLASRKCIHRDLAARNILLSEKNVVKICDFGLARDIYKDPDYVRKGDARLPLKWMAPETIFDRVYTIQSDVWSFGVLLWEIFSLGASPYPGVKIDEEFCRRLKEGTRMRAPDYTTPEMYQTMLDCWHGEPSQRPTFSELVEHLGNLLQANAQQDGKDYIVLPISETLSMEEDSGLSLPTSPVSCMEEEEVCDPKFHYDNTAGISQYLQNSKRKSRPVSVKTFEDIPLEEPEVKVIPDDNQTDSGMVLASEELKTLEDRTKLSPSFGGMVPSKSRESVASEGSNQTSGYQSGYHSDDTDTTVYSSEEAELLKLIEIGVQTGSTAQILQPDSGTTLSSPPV
T11 sequence (P08631 whole entry, the tested form may be a part): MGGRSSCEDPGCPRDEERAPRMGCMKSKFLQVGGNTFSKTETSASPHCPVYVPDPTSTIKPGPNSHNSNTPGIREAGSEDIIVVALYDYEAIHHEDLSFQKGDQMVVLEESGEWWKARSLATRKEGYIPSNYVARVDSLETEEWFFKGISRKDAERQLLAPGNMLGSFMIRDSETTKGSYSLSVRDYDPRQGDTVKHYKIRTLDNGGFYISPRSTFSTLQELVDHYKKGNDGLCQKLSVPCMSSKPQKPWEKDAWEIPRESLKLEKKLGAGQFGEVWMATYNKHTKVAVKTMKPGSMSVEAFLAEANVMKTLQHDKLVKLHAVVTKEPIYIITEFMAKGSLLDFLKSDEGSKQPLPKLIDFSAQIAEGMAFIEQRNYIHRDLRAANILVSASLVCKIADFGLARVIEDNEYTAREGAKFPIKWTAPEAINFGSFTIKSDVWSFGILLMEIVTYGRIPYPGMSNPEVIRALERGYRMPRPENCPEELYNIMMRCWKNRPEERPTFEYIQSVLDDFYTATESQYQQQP
T6 sequence (P08069 31-1367): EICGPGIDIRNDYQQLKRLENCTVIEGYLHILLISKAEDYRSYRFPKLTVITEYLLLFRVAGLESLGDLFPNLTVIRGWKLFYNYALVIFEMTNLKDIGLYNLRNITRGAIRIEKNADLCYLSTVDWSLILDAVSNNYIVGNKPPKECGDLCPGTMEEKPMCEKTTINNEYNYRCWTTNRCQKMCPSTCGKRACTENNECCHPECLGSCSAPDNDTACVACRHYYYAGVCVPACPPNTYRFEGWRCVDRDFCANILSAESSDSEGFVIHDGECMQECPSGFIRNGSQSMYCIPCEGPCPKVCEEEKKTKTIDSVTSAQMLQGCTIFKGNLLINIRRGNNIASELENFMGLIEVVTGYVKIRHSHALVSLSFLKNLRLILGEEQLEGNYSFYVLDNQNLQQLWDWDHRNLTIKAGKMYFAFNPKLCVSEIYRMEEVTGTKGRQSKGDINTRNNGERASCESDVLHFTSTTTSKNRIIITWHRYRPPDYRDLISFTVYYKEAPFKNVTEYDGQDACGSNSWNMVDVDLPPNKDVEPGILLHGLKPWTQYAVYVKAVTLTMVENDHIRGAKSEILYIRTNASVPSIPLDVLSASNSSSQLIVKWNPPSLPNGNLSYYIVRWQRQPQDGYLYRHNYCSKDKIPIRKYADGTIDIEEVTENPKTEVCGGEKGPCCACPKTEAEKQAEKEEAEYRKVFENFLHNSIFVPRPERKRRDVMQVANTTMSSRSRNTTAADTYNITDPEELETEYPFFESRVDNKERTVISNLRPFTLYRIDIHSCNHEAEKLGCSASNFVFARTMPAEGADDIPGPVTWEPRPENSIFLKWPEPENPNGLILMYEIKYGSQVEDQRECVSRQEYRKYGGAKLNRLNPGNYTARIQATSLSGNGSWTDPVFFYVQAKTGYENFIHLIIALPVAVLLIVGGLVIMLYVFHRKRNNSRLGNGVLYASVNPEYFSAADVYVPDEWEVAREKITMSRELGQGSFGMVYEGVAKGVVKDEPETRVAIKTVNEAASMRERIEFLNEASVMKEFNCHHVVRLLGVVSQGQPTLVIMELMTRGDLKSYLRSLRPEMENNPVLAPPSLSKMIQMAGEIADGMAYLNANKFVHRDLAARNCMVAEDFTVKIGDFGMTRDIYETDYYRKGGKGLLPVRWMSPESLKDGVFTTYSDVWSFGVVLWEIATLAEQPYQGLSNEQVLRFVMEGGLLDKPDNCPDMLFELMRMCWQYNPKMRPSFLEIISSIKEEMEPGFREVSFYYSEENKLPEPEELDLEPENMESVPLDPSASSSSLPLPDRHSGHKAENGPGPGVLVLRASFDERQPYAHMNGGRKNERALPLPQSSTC
T8 sequence (P11362 22-822, species assumed): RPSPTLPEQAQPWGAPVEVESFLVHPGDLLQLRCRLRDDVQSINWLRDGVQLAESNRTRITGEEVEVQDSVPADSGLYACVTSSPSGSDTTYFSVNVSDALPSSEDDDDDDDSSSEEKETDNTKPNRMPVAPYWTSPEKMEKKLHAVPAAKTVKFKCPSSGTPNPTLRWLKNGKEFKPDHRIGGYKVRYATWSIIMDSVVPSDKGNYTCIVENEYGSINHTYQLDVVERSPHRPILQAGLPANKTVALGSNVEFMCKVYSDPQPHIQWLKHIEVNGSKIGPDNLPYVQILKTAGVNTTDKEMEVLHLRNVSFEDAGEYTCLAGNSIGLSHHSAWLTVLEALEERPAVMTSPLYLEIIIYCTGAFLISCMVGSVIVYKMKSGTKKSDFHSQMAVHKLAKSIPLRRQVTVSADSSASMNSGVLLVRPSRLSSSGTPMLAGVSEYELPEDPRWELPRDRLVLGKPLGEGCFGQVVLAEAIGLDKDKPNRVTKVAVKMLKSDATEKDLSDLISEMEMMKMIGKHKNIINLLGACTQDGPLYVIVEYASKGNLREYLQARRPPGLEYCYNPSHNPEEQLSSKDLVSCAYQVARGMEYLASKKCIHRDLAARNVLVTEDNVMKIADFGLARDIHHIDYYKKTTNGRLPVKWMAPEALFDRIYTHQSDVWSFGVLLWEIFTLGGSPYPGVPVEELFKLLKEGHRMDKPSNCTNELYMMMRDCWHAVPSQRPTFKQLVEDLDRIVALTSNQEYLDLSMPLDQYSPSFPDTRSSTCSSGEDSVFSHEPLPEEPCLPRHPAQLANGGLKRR

As to `COc1cc(Nc2ncnc(Nc3ccc(C(=O)O)cc3)n2)cc(OC)c1OC` [Compound 104], the IC50 was 1.01 to 6.04 µM on PDGFRB; above 11.3 µM at AKT; above 11.3 µM at Zap-70; 1.01 to 6.04 µM at Flt-1; 6.04 to 8.81 µM on Lck; 6.04 to 8.81 µM on IGFR-1. The IC50 at c-Met was above 11.3 µM; on FGFR1, above 11.3 µM; on Kdr, 1.01 to 6.04 µM; on Lyn it was above 11.3 µM; against Hck-1, above 11.3 µM; on ErbB2 it was 1.01 to 6.04 µM.
For `Cc1cccc(Nc2ncnc(Nc3ccc4[nH]ccc4c3)n2)c1` [Compound 110], the IC50 was below 1.26 µM at PDGFRB; above 14.2 µM on AKT; above 14.2 µM on Zap-70; below 1.26 µM against Flt-1; 1.26 to 7.59 µM at Lck; 1.26 to 7.59 µM on IGFR-1. Also, the IC50 on c-Met is 11.1 to 14.2 µM; at FGFR1, below 1.26 µM; on Kdr it was below 1.26 µM; on Lyn it was below 1.26 µM; against Hck-1, 7.59 to 11.1 µM; on ErbB2, below 1.26 µM.
Take `Cc1cccc(Nc2ncnc(Nc3ccc4[nH]ncc4c3)n2)c1` [Compound 120]: the IC50 at PDGFRB is below 1.26 µM; at AKT it was 7.56 to 11 µM; on Zap-70 it was 11 to 14.2 µM; against Flt-1 it was 1.26 to 7.56 µM; at Lck, 11 to 14.2 µM; on IGFR-1 it was below 1.26 µM. In addition, the IC50 is 7.56 to 11 µM on c-Met; 1.26 to 7.56 µM on FGFR1; 1.26 to 7.56 µM on Kdr; below 1.26 µM against Lyn; 1.26 to 7.56 µM on Hck-1; 1.26 to 7.56 µM at ErbB2.
Turning to `COc1cc(Nc2ncnc(Nc3cccc(Cl)c3)n2)cc(OC)c1OC` [Compound 135], the IC50 at PDGFRB is below 1.03 µM; at AKT, above 11.6 µM; at Zap-70, 9.02 to 11.6 µM; against Flt-1, above 11.6 µM; on Lck it was 1.03 to 6.19 µM; at IGFR-1, below 1.03 µM. In addition, the IC50 on c-Met is 1.03 to 6.19 µM; at FGFR1, 1.03 to 6.19 µM; at Kdr, below 1.03 µM; at Lyn it was below 1.03 µM; against Hck-1, above 11.6 µM; on ErbB2, below 1.03 µM.
Turning to `COc1cc(Nc2ncnc(Nc3ccc(OCc4ccccc4)cc3)n2)cc(OC)c1` [Compound 156], the IC50 is 8.15 to 10.5 µM at PDGFRB; above 10.5 µM on AKT; above 10.5 µM on Zap-70; 5.59 to 8.15 µM on Flt-1; 8.15 to 10.5 µM on Lck; above 10.5 µM at IGFR-1. In addition, the IC50 at c-Met was 8.15 to 10.5 µM; at FGFR1, 0.931 to 5.59 µM; on Kdr, 5.59 to 8.15 µM; at Lyn, 5.59 to 8.15 µM; against Hck-1, above 10.5 µM; on ErbB2, 0.931 to 5.59 µM.
With `COc1cc(Nc2ncnc(Nc3ccc4c(ccn4Cc4ccccc4)c3)n2)cc(OC)c1OC` [Compound 178], the IC50 lay in the range of 4.97 to 7.25 µM at PDGFRB; 7.25 to 9.33 µM at AKT; 0.829 to 4.97 µM on Zap-70; 7.25 to 9.33 µM at Flt-1; 0.829 to 4.97 µM at Lck; 0.829 to 4.97 µM against IGFR-1. Further, the IC50 is 4.97 to 7.25 µM on c-Met; 7.25 to 9.33 µM on FGFR1; 0.829 to 4.97 µM on Kdr; below 0.829 µM at Lyn; above 9.33 µM at Hck-1; below 0.829 µM at ErbB2.
Turning to `COc1cc(Nc2ncnc(-n3ccc4ccccc43)n2)cc(OC)c1OC` [Compound 185], the IC50 is below 1.06 µM at PDGFRB; above 11.9 µM at AKT; above 11.9 µM at Zap-70; 1.06 to 6.36 µM at Flt-1; 6.36 to 9.27 µM at Lck; 1.06 to 6.36 µM against IGFR-1. The IC50 was 9.27 to 11.9 µM on c-Met; above 11.9 µM on FGFR1; below 1.06 µM on Kdr; above 11.9 µM at Lyn; above 11.9 µM against Hck-1; above 11.9 µM at ErbB2.
With `COc1ccc(Nc2ncnc(-n3c(N)nc4ccccc43)n2)cc1OC` [Compound 285], the IC50 at PDGFRB was above 12.4 µM; on AKT it was above 12.4 µM; at Zap-70, above 12.4 µM; at Flt-1 it was above 12.4 µM; at Lck it was 1.1 to 6.6 µM; against IGFR-1 it was below 1.1 µM. The IC50 at c-Met is above 12.4 µM; on FGFR1, 9.63 to 12.4 µM; at Kdr, below 1.1 µM; on Lyn, above 12.4 µM; at Hck-1, above 12.4 µM; at ErbB2, above 12.4 µM.
Take `COc1cc(Nc2ncnc(Nc3cccc(F)c3)n2)cc(OC)c1OC` [Compound 304]: the IC50 at PDGFRB is below 1.08 µM; on AKT, above 12.1 µM; at Zap-70, above 12.1 µM; against Flt-1, 1.08 to 6.46 µM; at Lck, below 1.08 µM; against IGFR-1, below 1.08 µM. Besides, the IC50 was 1.08 to 6.46 µM at c-Met; 1.08 to 6.46 µM on FGFR1; below 1.08 µM on Kdr; below 1.08 µM on Lyn; 6.46 to 9.42 µM on Hck-1; 1.08 to 6.46 µM at ErbB2.
With `COCCOc1ccc(Nc2ncnc(Nc3ccc4[nH]ccc4c3)n2)cc1OCCOC` [Compound 321], the IC50 at PDGFRB was 0.888 to 5.33 µM; at AKT it was above 9.99 µM; at Zap-70, above 9.99 µM; against Flt-1, above 9.99 µM; at Lck it was 7.77 to 9.99 µM; at IGFR-1 it was 5.33 to 7.77 µM. The IC50 on c-Met was above 9.99 µM; at FGFR1, above 9.99 µM; at Kdr, below 0.888 µM; against Lyn, below 0.888 µM; on Hck-1, above 9.99 µM; on ErbB2 it was 0.888 to 5.33 µM.
As to `COc1cc(Nc2ncnc(Nc3ccc(C)cc3)n2)cc(OC)c1OC` [Compound 930], the IC50 at PDGFRB is below 1.09 µM; at AKT, above 12.2 µM; on Zap-70, above 12.2 µM; at Flt-1, 6.53 to 9.53 µM; at Lck, 1.09 to 6.53 µM; against IGFR-1, 1.09 to 6.53 µM. Besides, the IC50 on c-Met was 9.53 to 12.2 µM; on FGFR1, 6.53 to 9.53 µM; at Kdr it was below 1.09 µM; on Lyn, below 1.09 µM; on Hck-1, 6.53 to 9.53 µM; on ErbB2 it was 1.09 to 6.53 µM.
On to `COc1ccc(Nc2ncnc(Nc3cc(OC)c(OC)c(OC)c3)n2)cc1O` [Compound 931], for which the IC50 on PDGFRB was below 1 µM; on AKT, above 11.3 µM; on Zap-70 it was above 11.3 µM; against Flt-1, below 1 µM; at Lck, 1 to 6.01 µM; against IGFR-1 it was 1 to 6.01 µM. Besides, the IC50 was above 11.3 µM at c-Met; 1 to 6.01 µM at FGFR1; below 1 µM at Kdr; below 1 µM against Lyn; 1 to 6.01 µM against Hck-1; 1 to 6.01 µM on ErbB2.

The values above are taken from patent US7074789B2, “Kinase inhibitors” (Amgen Inc., priority 1999, dated 2006).
